Data reported in paper PMC10547211, “Neuronal expression in Drosophila of an evolutionarily conserved metallophosphodiesterase reveals pleiotropic roles in longevity and odorant response” (PLOS Genetics, 2023).

Molecular target: T1, dMpped (Drosophila melanogaster, UniProt Q9VT29)
T1 construct: gene Mpped; full-length coding region (300 residues) amplified from whole-fly cDNA; E. coli BL21DE3; gel filtration; about 37 kDa on gel
Test: colorimetric p-nitrophenol release, […] nm
Format: biochemical
Settings: Mn2+ as metal cofactor (5 mM in standard assay); pH 9.0 triple buffer; 5 mM 2-mercaptoethanol; 10 mM NaCl

T1 sequence (Q9VT29 entry or part of it): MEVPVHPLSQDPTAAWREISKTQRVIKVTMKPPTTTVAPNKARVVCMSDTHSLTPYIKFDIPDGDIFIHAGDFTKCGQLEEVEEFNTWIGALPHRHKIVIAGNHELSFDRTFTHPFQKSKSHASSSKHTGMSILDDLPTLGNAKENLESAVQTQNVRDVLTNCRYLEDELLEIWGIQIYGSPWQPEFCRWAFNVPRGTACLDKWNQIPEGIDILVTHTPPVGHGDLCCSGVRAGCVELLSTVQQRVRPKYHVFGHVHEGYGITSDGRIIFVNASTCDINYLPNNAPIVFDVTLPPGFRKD

O=[N+]([O-])c1ccc(OP(=O)(O)c2ccccc2)cc1 [pNPPP]
Km: ~10 mM
